From patent US12606552B2, “Bifunctional compound, preparation method therefor, and use thereof” (SUZHOU KINTOR PHARMACEUTICALS, INC., priority 2020, dated 2026)

Target: T1, AR (Homo sapiens, UniProt P10275, T878A)
T1 sequence (P10275 1-920 T878A): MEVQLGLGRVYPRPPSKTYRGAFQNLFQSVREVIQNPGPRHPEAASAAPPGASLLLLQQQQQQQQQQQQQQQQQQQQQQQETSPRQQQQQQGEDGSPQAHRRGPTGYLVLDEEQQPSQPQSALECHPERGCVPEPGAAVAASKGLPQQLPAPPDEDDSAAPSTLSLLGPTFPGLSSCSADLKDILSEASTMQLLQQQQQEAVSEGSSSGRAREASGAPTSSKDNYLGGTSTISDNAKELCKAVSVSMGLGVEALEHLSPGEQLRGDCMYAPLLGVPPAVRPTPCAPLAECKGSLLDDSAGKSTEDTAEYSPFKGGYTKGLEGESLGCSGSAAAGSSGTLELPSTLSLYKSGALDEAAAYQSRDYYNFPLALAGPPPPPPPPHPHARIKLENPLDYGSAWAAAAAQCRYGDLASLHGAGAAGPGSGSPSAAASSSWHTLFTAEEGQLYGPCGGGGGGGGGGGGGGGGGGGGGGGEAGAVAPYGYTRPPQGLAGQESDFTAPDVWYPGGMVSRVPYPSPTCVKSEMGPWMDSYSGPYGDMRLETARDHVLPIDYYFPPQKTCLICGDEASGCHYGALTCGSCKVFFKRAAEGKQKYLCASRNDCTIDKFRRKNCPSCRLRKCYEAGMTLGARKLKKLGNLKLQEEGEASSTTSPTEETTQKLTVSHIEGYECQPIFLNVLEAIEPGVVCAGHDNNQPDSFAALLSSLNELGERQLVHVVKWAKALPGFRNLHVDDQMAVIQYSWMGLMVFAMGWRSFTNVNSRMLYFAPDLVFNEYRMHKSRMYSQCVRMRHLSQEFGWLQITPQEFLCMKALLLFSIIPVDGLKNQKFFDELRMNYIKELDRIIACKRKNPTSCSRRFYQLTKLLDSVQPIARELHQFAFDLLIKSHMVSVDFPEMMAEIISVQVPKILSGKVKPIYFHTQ
Experiment: Effects of compounds on AR expression in LNCaP cells (ELISA, DC50)
Format: cell-based
Parameters: Measurement of the Effects of Drugs on the Expression of AR in Cells by ELISA Method; endogenous in cells; host or cells: LNCaP
Details: 24 hours of drug treatment, AR by ELISA
Experimental: Activity Assay Example 1: Effects of Compounds on AR Expression in LNCaP Cells
1. Cell Line and Cell Culture
Human prostate cancer cells LNCaP (Shanghai Chinese Academy of Sciences Cell Bank). LNCaP was cultured in 1640 medium containing 10% fetal bovine serum. The cells grow in clusters, with weak adhesion to the bottom of the culture flask, slow proliferation, with a multiplication time of 72 h. The cells are closely adhered to each other and need to be digested with 0.05% trypsin containing 0.025% EDTA. The cells were passaged every 3 days. The cells were cultured at 37° C. and 5% CO2 in a humidified incubator
2. Cell plating: The supernatant was discarded, and the Lncap cells in the logarithmic growth phase were taken, washed with PBS once, and added with appropriate 0.05% trypsin digestion solution to be fully digested into single cell suspension, and centrifuged, resuspended and counted to make the number of cells about 15,000 per well, then inoculated in a 96-well plate, placed at 37° C., 5% CO2 and cultured overnight for 24 h.
3. Preparation and Addition of Compound Solutions
About 2 mg of each compound was weighed and dissolved in DMSO to make the stock solution with a concentration of 10 mmol/L. Dilution process (final concentration dilution: 2, 0.667, 0.222, 0.074, 0.0245, 0.008, 0.003, 0.001, 0.0003, 0.0001 μmol/L): 10 centrifuge tubes with a volume of 1.5 mL were taken and numbered 1, 2, 3, 4, 5, 6, 7, 8, 9, and 10, 80 μL DMSO was added to tube No. 1, and 60 μL DMSO was added to tubes No. 2 to No. 10, 20 μL of the stock solution was pipetted to tube No. 1 and mixed well; 30 μL was pipetted from tube No. 1 into tube No. 2 and mixed well. 30 μL was pipetted from tube No. 2 into tube No. 3 and mixed well, and so forth, to obtain samples No. 4-10, and to obtain working solutions of compounds of different concentrations respectively. 2 μL was pipetted from the above-mentioned tubes No. 1-10 into each corresponding sterile deep-well plates, added with 198 μL of culture medium, and mixed well. 11 ul was added to each well of the 96-well cell plate cultured overnight to obtain the corresponding desired concentrations (2, 0.667, 0.222, 0.074, 0.0245, 0.008, 0.003, 0.001, 0.0003, 0.0001 μmol/L).
4. Measurement of the Effects of Drugs on the Expression of AR in Cells by ELISA Method
After 24 hours of drug treatment, the supernatant was removed, and 200 μL of PBS was added to wash cells, and then the supernatant was removed, and 100 μL of cell lysate was added to lyse cells on ice for 20 min, then the cell lysate was centrifuged at 4000 rpm for 20 min at 4° C. and the supernatant was taken for later use. The measurement steps of the supernatant were according to the ELISA kit instructions:
4.1 The slats required for the test were taken out from the sealed bag that has been equilibrated to room temperature. Please put the unused slats and desiccant back into the aluminum foil bag and compress the self-sealing strip, seal the bag, and store at 4° C.
4.2 Standards and sample diluents were added to blank wells, and different concentrations of standards (10 ul/well) and sample diluents (90 ul/well) were added to the remaining corresponding wells, and the reaction wells were sealed with sealing tape, and refrigerated at 4° C. overnight.
4.3 Primary antibody was diluted with dilution buffer to the corresponding concentration and added to each well in 100 ul/well. The reaction wells were sealed with sealing tape and incubated at 37° C. for 60 min.
4.4 Secondary antibody was diluted with dilution buffer to the corresponding concentration and added to each well in 100 ul/well. The reaction wells were sealed with sealing tape and incubated at 37° C. for 30 min.
4.5 The reaction wells were added with 100 ul/well of substrate (TMB) and incubated at room temperature for 30 min.
4.6 The reaction wells were added with 100 ul/well of stop solution, mixed well and then the OD450 value was measured with a microplate reader. […]

`Cc1ncsc1-c1ccc(CNC(=O)[C@@H]2C[C@@H](O)CN2C(=O)[C@@H](NC(=O)CCN2CCC(Oc3ccc(-c4ccc(N5C(=S)N(c6ccc(C#N)c(C(F)(F)F)c6F)C(=O)C5(C)C)cn4)cc3)CC2)C(C)(C)C)cc1` [Compound A65] and `Cc1ncsc1-c1ccc(CNC(=O)[C@@H]2C[C@@H](O)CN2C(=O)[C@@H](NC(=O)CN2CCN(CCc3ccc(-c4ccc(N5C(=S)N(c6ccc(C#N)c(C(F)(F)F)c6F)C(=O)C5(C)C)cn4)cc3)CC2)C(C)(C)C)cc1` [Compound A69] are within 1.5-fold of each other in DC50: 32.4 nM for the first, 39.4 nM for the second.

Compared with `Cc1ncsc1-c1ccc(CNC(=O)[C@@H]2C[C@@H](O)CN2C(=O)[C@@H](NC(=O)COCCCC(=O)N(Cc2ccccc2)c2ccc(-c3ccc(N4C(=S)N(c5ccc(C#N)c(C(F)(F)F)c5F)C(=O)C4(C)C)cn3)cc2)C(C)(C)C)cc1` [Compound A67], `Cc1ncsc1-c1ccc(CNC(=O)[C@@H]2C[C@@H](O)CN2C(=O)[C@@H](NC(=O)COCCCCNc2ccc(-c3ccc(N4C(=S)N(c5ccc(C#N)c(C(F)(F)F)c5F)C(=O)C4(C)C)cn3)cc2)C(C)(C)C)cc1` [Compound A68] is higher in DC50: 248 nM for the first, > 2000 nM for the second.

`Cc1ncsc1-c1ccc(CNC(=O)[C@@H]2C[C@@H](O)CN2C(=O)[C@@H](NC(=O)COCCCCOc2ccc(-c3ncc(N4C(=S)N(c5ccc(C#N)c(C(F)(F)F)c5F)C(=O)C4(C)C)cc3C(F)(F)F)cc2C#N)C(C)(C)C)cc1` [Compound A75] and `Cc1ncsc1-c1ccc(CNC(=O)[C@@H]2C[C@@H](O)CN2C(=O)[C@@H](NC(=O)COCCOc2ccc(-c3ncc(N4C(=S)N(c5ccc(C#N)c(C(F)(F)F)c5F)C(=O)C4(C)C)cc3C(F)(F)F)cc2)C(C)(C)C)cc1` [Compound A92] are within 1.5-fold of each other in DC50: 89.4 nM for the first, 99.6 nM for the second.

Going from `Cc1ncsc1-c1ccc(CNC(=O)[C@@H]2C[C@@H](O)CN2C(=O)[C@@H](NC(=O)COCCOCCOc2ccc(-c3ccc(N4C(=S)N(c5ccc(C#N)c(C(F)(F)F)c5F)C(=O)C4(C)C)cn3)cc2)C(C)(C)C)cc1` [Compound A76] to `Cc1ncsc1-c1ccc(CNC(=O)[C@@H]2C[C@@H](O)CN2C(=O)[C@@H](NC(=O)COCCCCn2cc(-c3ccc(N4C(=S)N(c5ccc(C#N)c(C(F)(F)F)c5F)C(=O)C4(C)C)cn3)ccc2=O)C(C)(C)C)cc1` [Compound A98], the DC50 rises from 40 nM to 281 nM (7-fold).

Compared with `Cc1ncsc1-c1ccc(CNC(=O)[C@@H]2C[C@@H](O)CN2C(=O)[C@@H](NC(=O)CCn2cc(COc3ccc(-c4ccc(N5C(=S)N(c6ccc(C#N)c(C(F)(F)F)c6F)C(=O)C5(C)C)cn4)cc3)nn2)C(C)(C)C)cc1` [Compound A80], `Cc1ncsc1-c1ccc(CNC(=O)[C@@H]2C[C@@H](O)CN2C(=O)[C@@H](NC(=O)CCCn2cc(COc3ccc(-c4ccc(N5C(=S)N(c6ccc(C#N)c(C(F)(F)F)c6F)C(=O)C5(C)C)cn4)cc3)nn2)C(C)(C)C)cc1` [Compound A81] is 1.8-fold lower in DC50: 116 nM for the first, 63.3 nM for the second.

Going from `Cc1ncsc1-c1ccc(CNC(=O)[C@@H]2C[C@@H](O)CN2C(=O)[C@@H](NC(=O)CN2CCN(Cc3ccc(-c4ccc(N5C(=S)N(c6ccc(C#N)c(C(F)(F)F)c6F)C(=O)C5(C)C)cn4)cc3)CC2)C(C)(C)C)cc1` [Compound A86] to `Cc1ncsc1-c1ccc(CNC(=O)[C@@H]2C[C@@H](O)CN2C(=O)[C@@H](NC(=O)COCCCCN2CCN(c3ccc(N4C(=S)N(c5ccc(C#N)c(C(F)(F)F)c5F)C(=O)C4(C)C)cn3)CC2)C(C)(C)C)cc1` [Compound A106], the DC50 rises from 69.3 nM to 402 nM (5.8-fold).

First: Cc1ncsc1-c1ccc(CNC(=O)[C@@H]2C[C@@H](O)CN2C(=O)[C@@H](NC(=O)COCCOc2c(F)cc(-c3ncc(N4C(=S)N(c5ccc(C#N)c(C(F)(F)F)c5F)C(=O)C4(C)C)cc3F)cc2F)C(C)(C)C)cc1 [Compound A87]
Second: Cc1ncsc1-c1ccc(CNC(=O)[C@@H]2C[C@@H](O)CN2C(=O)[C@@H](OC(=O)COCCCCOc2ccc(-c3ncc(N4C(=S)N(c5ccc(C#N)c(C(F)(F)F)c5F)C(=O)C4(C)C)cc3F)cc2F)C(C)(C)C)cc1 [Compound A107]
The DC50 of the first is 2-fold lower: 54.6 nM for the first, 107 nM for the second.

Compared with `Cc1ncsc1-c1ccc(CNC(=O)[C@@H]2C[C@@H](O)CN2C(=O)[C@@H](NC(=O)CCCn2cc(COc3ccc(-c4ncc(N5C(=S)N(c6ccc(C#N)c(C(F)(F)F)c6F)C(=O)C5(C)C)cc4F)cc3F)nn2)C(C)(C)C)cc1` [Compound A96], `Cc1ncsc1-c1ccc(CNC(=O)[C@@H]2C[C@@H](O)CN2C(=O)[C@@H](NC(=O)CCN2CCC(Oc3ccc(-c4ncc(N5C(=S)N(c6ccc(C#N)c(C(F)(F)F)c6F)C(=O)C5(C)C)cc4F)cc3F)CC2)C(C)(C)C)cc1` [Compound A104] is 4.4-fold higher in DC50: 54.9 nM for the first, 241 nM for the second.

First: Cc1ncsc1-c1ccc([C@H](C)NC(=O)[C@@H]2C[C@@H](O)CN2C(=O)[C@@H](NC(=O)COCCCCOc2ccc(-c3ccc(N4C(=S)N(c5ccc(C#N)c(C(F)(F)F)c5F)C(=O)C4(C)C)cn3)cc2C(F)(F)F)C(C)(C)C)cc1 [Compound A113]
Second: CC(C)(C)[C@H](NC(=O)COCCCCOc1ccc(-c2ncc(N3C(=S)N(c4ccc(C#N)c(C(F)(F)F)c4F)C(=O)C3(C)C)cc2F)cc1F)C(=O)N1C[C@H](O)C[C@H]1C(=O)NCc1ccc(C(N)=O)cc1 [Compound A119]
The DC50 of the first is 27-fold higher: 193 nM for the first, 7.2 nM for the second.

First: CC(C)(C)[C@H](NC(=O)COCCCCOc1c(F)cc(-c2ncc(N3C(=S)N(c4ccc(C#N)c(C(F)(F)F)c4F)C(=O)C3(C)C)cc2C(F)(F)F)cc1F)C(=O)N1C[C@H](O)C[C@H]1C(=O)NCc1ccccc1 [Compound A114]
Second: CC(C)(C)[C@H](NC(=O)COCCCCOc1c(F)cc(-c2ncc(N3C(=S)N(c4ccc(C#N)c(C(F)(F)F)c4F)C(=O)C3(C)C)cc2C(F)(F)F)cc1F)C(=O)N1C[C@H](O)C[C@H]1C(=O)NCc1ccc(C(N)=O)cc1 [Compound A116]
The DC50 of the first is 4.7-fold lower: 79.3 nM for the first, 370 nM for the second.

Compared with `CC(C)(C)[C@H](NC(=O)COCCCCCOc1ccc(-c2ncc(N3C(=S)N(c4ccc(C#N)c(C(F)(F)F)c4F)C(=O)C3(C)C)cc2F)cc1F)C(=O)N1C[C@H](O)C[C@H]1C(=O)NCc1ccc(C(N)=O)cc1` [Compound A117], `CC(C)(C)[C@H](NC(=O)COCCCCCOc1ccc(-c2ncc(N3C(=S)N(c4ccc(C#N)c(C(F)(F)F)c4F)C(=O)C3(C)C)cc2F)cc1F)C(=O)N1C[C@H](O)C[C@H]1C(=O)NCc1ccccc1` [Compound A118] is higher in DC50: 111 nM for the first, > 2000 nM for the second.
